Measurements from patent US6858625B1, “Quinolinecarboxylic acid derivative or salts thereof” (Wakunaga Pharmaceutical Co., Ltd., priority 1999, dated 2005).
In brackets after ≈: the same amount, converted by molar mass. Each block holds one molecule with its values, some of them ahead of it.

Columns and labels:
MRSA W200 = test: Minimum growth inhibitory concentration (MIC), standard method of the Japan Society of Chemotherapy; format: cell-based; conditions: Staphylococcus aureus
Method: (§1) Their minimum growth inhibitory concentrations (MICs: μg/mL) were determined in accordance with the standard method of the Japan Society of Chemotherapy [Chemotherapy, 29(1), 76 (1981)].

M. luteus IFO12708 = test: as above; format: cell-based; conditions: Micrococcus luteus
Method: as §1

E. faecalis IFO12580 = test: as above; format: cell-based; conditions: Enterococcus faecalis
Method: as §1

S. epidermidis IFO12293 = test: as above; format: cell-based; conditions: Staphylococcus epidermidis
Method: as §1

E. coli NIHJ-JC2 = test: as above; format: cell-based; conditions: Escherichia coli, NIHJJC2
Method: as §1

B. subtilis ATCC6633 = test: as above; format: cell-based; conditions: Bacillus subtilis
Method: as §1

S. aureus 209P = test: as above; format: cell-based; conditions: Staphylococcus aureus
Method: as §1

P. aeruginosa IFO3445 = test: as above; format: cell-based; conditions: Pseudomonas aeruginosa
Method: as §1

S. marcescens IFO3736 = test: as above; format: cell-based; conditions: Serratia marcescens
Method: as §1

K. pneumoniae KC-1 = test: as above; format: cell-based; conditions: Klebsiella pneumoniae, KC1
Method: as §1

P. aeruginosa E-2 = test: as above; format: cell-based; conditions: Pseudomonas aeruginosa, E2
Method: as §1

P. vulgaris IFO3167 = test: as above; format: cell-based; conditions: Proteus vulgaris
Method: as §1

[1] = test system: Isolated coccus 1 (clinically-isolated quinolone resistant pneumococci); test: MIC against clinically-isolated quinolone resistant pneumococci, agar plates with 5% defibrinated sheep blood; format: cell-based; conditions: Isolated coccus 1, quinolone resistant pneumococcus
Method: (§2) Using agar plates added with 5% defibrinated sheep blood, minimum growth inhibition concentrations (MICs; μg/mL) against certain pneumococci were determined in accordance with the standard method of the Japan Society of Chemotherapy [Chemotherapy, 29(1), 76 (1981)].

[2] = test system: Isolated coccus 5 (clinically-isolated quinolone resistant pneumococci); test: as above; format: cell-based; conditions: Isolated coccus 5, quinolone resistant pneumococcus
Method: as §2

[3] = In vivo pharmacokinetic study (absorption and excretion in dogs); parameters: species or system beagles; conditions: for AUC(0-t) / Cmax / Tmax / half-life / Urinary excretion rate: male beagles, per os; for AUC(0-t) / Cmax / Tmax / half-life: 10 mg/mL/kg in 0.5% methyl cellulose; for Urinary excretion rate: 10 mg/mL/kg, urine up to 24th hour
Method: An investigation was made on the absorption and excretion of the compounds of the present invention in and from dogs. A 0.5% suspension of one of the test compounds in methyl cellulose (10 mg/mL/kg) was forcedly administered per os to 2-4 years old, male beagles fasted for 16 to 17 hours. After the administration, blood samples were collected on the 0.25th, 0.5th, 1st, 2nd, 4th, 6th, 8th and 24th hours, and serum samples were obtained. To determine urinary excretion rates, urine samples were also collected up to 24th hour after the administration. The concentrations of the test compound in the serum samples and urine samples were measured by the paper disk method making use of Bacillus subtilis ATCC6633 as a test bacterium, and the absorption and excretion were ranked.

[4] = Phototoxicity test (ear abnormality after UV exposure); format: in vivo, ICR mice; conditions: 40 mg/kg i.v., 4 h UV 320-400 nm; for Ear abnormality (point): 0 = no abnormality to 3 = severe erythema or edema; for Ear abnormality (frequency): affected/total mice
Method: A phototoxicity test was performed by the following procedure. Female ICR mice (5 to 6 weeks old) were intravenously administered with the test compounds (40 mg/kg/10 mL), respectively, and were exposed for 4 hours to ultraviolet rays (320 to 400 nm, 1.8 mW/cm^2/sec). […] Ear abnormality was ranked by the following standards: no abnormality (0 point), mild erythema (1 point), medium erythema (2 points), and severe erythema or edema (3 points) The results are presented in Table 2.

[5] = beagle, dog, po, 10 mg/kg, serum

MIC (MRSA W200): 0.013 µg/mL (≈ 0.0254 µM) | MIC (M. luteus IFO12708): 0.39 µg/mL (≈ 0.761 µM) | MIC (E. faecalis IFO12580): 0.39 µg/mL (≈ 0.761 µM) | MIC (S. epidermidis IFO12293): 0.025 µg/mL (≈ 0.0488 µM) | MIC (E. coli NIHJ-JC2): 0.025 µg/mL (≈ 0.0488 µM) | MIC (B. subtilis ATCC6633): 0.025 µg/mL (≈ 0.0488 µM) | MIC (S. aureus 209P): 0.013 µg/mL (≈ 0.0254 µM) | MIC (P. aeruginosa IFO3445): 0.78 µg/mL (≈ 1.52 µM) | MIC (S. marcescens IFO3736): 1.56 µg/mL (≈ 3.05 µM) | MIC (K. pneumoniae KC-1): 0.05 µg/mL (≈ 0.0976 µM) | MIC (P. aeruginosa E-2): 1.56 µg/mL (≈ 3.05 µM) | MIC (P. vulgaris IFO3167): 0.1 µg/mL (≈ 0.195 µM) | AUC(0-t) [3, 5]: 22800 ng·h/mL | Cmax [3, 5]: 4820 ng/mL | Tmax [3, 5]: 1 h | half-life [3, 5]: 3.8 h | Urinary excretion rate [3]: 19.8% | bioavailability ([3]; male, beagle, dog, serum, po, 10 mg/kg, administered orally, calculated from an AUC up to 24th hour after administration): 78% | MIC [1]: 0.03 µg/mL (≈ 0.0586 µM) | MIC [2]: 0.12 µg/mL (≈ 0.234 µM)
Structure (SMILES): CCNC1CN(c2c(F)cc3c(=O)c(C(=O)O)cn(-c4nc(N)c(F)cc4F)c3c2Br)C1 [Compound 1, 1-(6-amino-3,5-difluoropyridin-2-yl)-8-bromo-7-(3-ethylaminoazetidin-1-yl)-6-fluoro-4-oxo-1,4-dihydroquinoline-3-carboxylic acid]
Ear abnormality (point) ([4]; 0 hour after exposure): 0 point | Ear abnormality (frequency) ([4]; 0 hour after exposure): 0/3 | Ear abnormality (point) ([4]; 24 hours after exposure): 0 point | Ear abnormality (frequency) ([4]; 24 hours after exposure): 0/3 | Ear abnormality (point) ([4]; 48 hours after exposure): 0 point | Ear abnormality (frequency) ([4]; 48 hours after exposure): 0/3

MIC (MRSA W200): 0.025 µg/mL (≈ 0.0502 µM) | MIC (M. luteus IFO12708): 0.39 µg/mL (≈ 0.783 µM) | MIC (E. faecalis IFO12580): 0.39 µg/mL (≈ 0.783 µM) | MIC (S. epidermidis IFO12293): 0.05 µg/mL (≈ 0.1 µM) | MIC (E. coli NIHJ-JC2): 0.013 µg/mL (≈ 0.0261 µM) | MIC (B. subtilis ATCC6633): 0.05 µg/mL (≈ 0.1 µM) | MIC (S. aureus 209P): 0.013 µg/mL (≈ 0.0261 µM) | MIC (P. aeruginosa IFO3445): 0.39 µg/mL (≈ 0.783 µM) | MIC (S. marcescens IFO3736): 1.56 µg/mL (≈ 3.13 µM) | MIC (K. pneumoniae KC-1): 0.025 µg/mL (≈ 0.0502 µM) | MIC (P. aeruginosa E-2): 0.78 µg/mL (≈ 1.57 µM) | MIC (P. vulgaris IFO3167): 0.1 µg/mL (≈ 0.201 µM) | AUC(0-t) [3, 5]: 8540 ng·h/mL | Cmax [3, 5]: 2350 ng/mL | Tmax [3, 5]: 0.5 h | half-life [3, 5]: 2 h | Urinary excretion rate [3]: 14.8% | MIC [1]: 0.06 µg/mL (≈ 0.12 µM) | MIC [2]: 0.5 µg/mL (≈ 1 µM)
Structure (SMILES): CNC1CN(c2c(F)cc3c(=O)c(C(=O)O)cn(-c4nc(N)c(F)cc4F)c3c2Br)C1 [Comparative Compound 1, 1-(6-amino-3,5-difluoropyridin-2-yl)-8-bromo-7-(3-methylaminoazetidin-1-yl)-6-fluoro-4-oxo-1,4-dihydroquinoline-3-carboxylic acid]
Ear abnormality (point) ([4]; 0 hour after exposure): 0 point | Ear abnormality (frequency) ([4]; 0 hour after exposure): 0/3 | Ear abnormality (point) ([4]; 24 hours after exposure): 0 point | Ear abnormality (frequency) ([4]; 24 hours after exposure): 0/3 | Ear abnormality (point) ([4]; 48 hours after exposure): 0 point | Ear abnormality (frequency) ([4]; 48 hours after exposure): 0/3

The next lines start with the molecule.

Structure (SMILES): C[C@H]1COc2c(N3CCN(C)CC3)c(F)cc3c(=O)c(C(=O)O)cn1c23 [LVFX, S(−)-9-fluoro-2,3-dihydro-3-methyl-10-(4-methyl-1-piperazinyl)-7-oxo-7H-pyrido[1,2,3-de][1,4]benzoxazine-6-carboxylic acid]
MIC (MRSA W200): 0.39 µg/mL (≈ 1.08 µM) | MIC (M. luteus IFO12708): 0.78 µg/mL (≈ 2.16 µM) | MIC (E. faecalis IFO12580): 1.56 µg/mL (≈ 4.32 µM) | MIC (S. epidermidis IFO12293): 0.78 µg/mL (≈ 2.16 µM) | MIC (E. coli NIHJ-JC2): 0.05 µg/mL (≈ 0.138 µM) | MIC (B. subtilis ATCC6633): 0.1 µg/mL (≈ 0.277 µM) | MIC (S. aureus 209P): 0.2 µg/mL (≈ 0.553 µM) | MIC (P. aeruginosa IFO3445): 0.78 µg/mL (≈ 2.16 µM) | MIC (S. marcescens IFO3736): 0.78 µg/mL (≈ 2.16 µM) | MIC (K. pneumoniae KC-1): 0.1 µg/mL (≈ 0.277 µM) | MIC (P. aeruginosa E-2): 1.56 µg/mL (≈ 4.32 µM) | MIC (P. vulgaris IFO3167): 0.05 µg/mL (≈ 0.138 µM) | MIC [1]: 2 µg/mL (≈ 5.53 µM) | MIC [2]: 32 µg/mL (≈ 88.6 µM)

Structure (SMILES): CCNC1CN(c2c(F)cc3c(=O)c(C(=O)O)cn(-c4nc(N)c(F)cc4F)c3c2Br)C1.O=C(O)/C=C\C(=O)O [Compound 2, 1-(6-amino-3,5-difluoropyridin-2-yl)-8-bromo-7-(3-ethylaminoazetidin-1-yl)-6-fluoro-4-oxo-1,4-dihydroquino line-3-carboxylic acid maleate]
AUC(0-t) [3, 5]: 17600 ng·h/mL | Cmax [3, 5]: 3730 ng/mL | Tmax [3, 5]: 1 h | half-life [3, 5]: 4.8 h | Urinary excretion rate [3]: 17.4%

Structure (SMILES): O=C(O)c1cn(C2CC2)c2cc(N3CCNCC3)c(F)cc2c1=O [CPFX, 1-cyclopropyl-6-fluoro-7-(1-piperadinyl)-1,4-dihydro-4-oxoquinoline-3-carboxylic acid]
MIC (MRSA W200): 0.78 µg/mL (≈ 2.35 µM) | MIC (M. luteus IFO12708): 3.13 µg/mL (≈ 9.45 µM) | MIC (E. faecalis IFO12580): 1.56 µg/mL (≈ 4.71 µM) | MIC (S. epidermidis IFO12293): 1.56 µg/mL (≈ 4.71 µM) | MIC (E. coli NIHJ-JC2): 0.025 µg/mL (≈ 0.0754 µM) | MIC (B. subtilis ATCC6633): 0.05 µg/mL (≈ 0.151 µM) | MIC (S. aureus 209P): 0.2 µg/mL (≈ 0.604 µM) | MIC (P. aeruginosa IFO3445): 0.39 µg/mL (≈ 1.18 µM) | MIC (S. marcescens IFO3736): 0.2 µg/mL (≈ 0.604 µM) | MIC (K. pneumoniae KC-1): 0.05 µg/mL (≈ 0.151 µM) | MIC (P. aeruginosa E-2): 0.78 µg/mL (≈ 2.35 µM) | MIC (P. vulgaris IFO3167): 0.05 µg/mL (≈ 0.151 µM)

Structure (SMILES): CCNC1CN(c2c(F)cc3c(=O)c(C(=O)O)cn(-c4nc(N)c(F)cc4F)c3c2Cl)C1 [Comparative Compound 2, 1-(6-amino-3,5-difluoro-pyridin-2-yl)-8-chloro-7-(3-ethylaminoazetidin-1-yl)-6-fluoro-4-oxo-1,4-dihydroquinoline-3-carboxylic acid]
MIC (MRSA W200): 0.025 µg/mL (≈ 0.0534 µM) | MIC (M. luteus IFO12708): 0.78 µg/mL (≈ 1.67 µM) | MIC (E. faecalis IFO12580): 0.78 µg/mL (≈ 1.67 µM) | MIC (S. epidermidis IFO12293): 0.05 µg/mL (≈ 0.107 µM) | MIC (E. coli NIHJ-JC2): 0.025 µg/mL (≈ 0.0534 µM) | MIC (B. subtilis ATCC6633): 0.025 µg/mL (≈ 0.0534 µM) | MIC (S. aureus 209P): 0.013 µg/mL (≈ 0.0278 µM) | MIC (P. aeruginosa IFO3445): 0.39 µg/mL (≈ 0.834 µM) | MIC (S. marcescens IFO3736): 1.56 µg/mL (≈ 3.33 µM) | MIC (K. pneumoniae KC-1): 0.05 µg/mL (≈ 0.107 µM) | MIC (P. aeruginosa E-2): 1.56 µg/mL (≈ 3.33 µM) | MIC (P. vulgaris IFO3167): 0.2 µg/mL (≈ 0.428 µM) | Ear abnormality (point) ([4]; 0 hour after exposure): 0.7 point | Ear abnormality (frequency) ([4]; 0 hour after exposure): 2/3 | Ear abnormality (point) ([4]; 24 hours after exposure): 0 point | Ear abnormality (frequency) ([4]; 24 hours after exposure): 0/3 | Ear abnormality (point) ([4]; 48 hours after exposure): 0 point | Ear abnormality (frequency) ([4]; 48 hours after exposure): 0/3
